Assay results: patent EP0445735A1, “Melanogenesis-inhibiting endermic preparation” (Sansho Seiyaku Co., Ltd., priority 1990, dated 1991)

Test system: B16 cells
Experiment: Test of whitening B16 cells (whiteness of cell pellets observed with the naked eye)
Assay type: cell-based
Conditions: for EC (whiteness 3+): Mus musculus, whiteness of cells 3 + (gray), read-out: Concentration of the test compound to give whiteness of cells of being 3 + (gray); for Whiteness of Cells: cell pellets after five days
Procedure: PMC was added to Eagle's MEM medium, to which a fetal calf serum had been added, in a concentration of 100, 50, 20 or 10 µM. 1 × 10⁵ B16 cells were inoculated into the medium. Three days after the inoculation, the medium was exchanged for a fresh one.
Standards of evaluation of whiteness of cells are as follows: 5 + : White 4 + : White to Gray 3 + : Gray 2 + : Gray to Black 1 + : Black (but somewhat paler than control) - : Black

Cc1c(C)c2c(c(C)c1O)CCC(C)(CO)O2 (stereo not drawn) [(5), 2,5,7,8-Tetramethyl-6-hydroxy-2-hydroxymethylchroman]
EC (whiteness 3+): 40 µM

COC1(C)CCc2c(C)c(O)c(C)c(C)c2O1 (stereo not drawn) [(3), 2,5,7,8-Tetramethyl-2-methoxzy-6-hydroxychroman]
EC (whiteness 3+): 50 µM

Cc1c2c(c(C(C)C)c(O)c1C(C)C)CCC(C)(C)O2 [(4), 2,2,8-Trimethyl-5,7-diisopropyl-6-hydroxychroman]
EC (whiteness 3+): 20 µM

Cc1c(C)c2c(c(C)c1O)CCC(C)(C)O2 [PMC, 2,2,5,7,8-Pentamethyl-6-hydroxychroman]
Whiteness of Cells (Concentration 10 µM): 1 +
Whiteness of Cells (Concentration 20 µM): 2 +
Whiteness of Cells (Concentration 50 µM): 3 +
Whiteness of Cells (Concentration 100 µM): 4 +
EC (whiteness 3+): 50 µM

CCOC(=O)CC1(C)CCc2c(C)c(O)c(C)c(C)c2O1 (stereo not drawn) [(6), Ethyl 2,5,7,8-tetramethyl-6-hydroxychroman-2-acetate]
EC (whiteness 3+): 30 µM
